Source: paper PMC10100771, “A Novel CMY Variant Confers Transferable High-Level Resistance to Ceftazidime-Avibactam in Multidrug-Resistant Escherichia coli” (Microbiology Spectrum, 2023)
In brackets after ≈: the same amount, converted by molar mass.

Tests used:
[1] = tested on: E. coli strain AR13438; assay: MIC by agar dilution, clinical isolate AR13438; assay type: cell-based, Escherichia coli; conditions: for Antimicrobial susceptibility category: AR13438, CLSI breakpoints (M100, 31st edition); for MIC: Escherichia coli, AR13438, clinical E. coli isolate (blaCMY-178, blaTEM-1, blaCTX-M-27), agar dilution
Protocol: (§1) Antimicrobial susceptibility testing was performed and interpreted according to the Clinical and Laboratory Standards Institute (CLSI) guidelines and breakpoints (M100, 31st edition) by the agar dilution method. E. coli ATCC 25922 and K. pneumoniae ATCC 700603 served as control strains.
(§2) The antibiotics we used included meropenem (Hanhui Pharmaceutical Co., Ltd., China), imipenem (Merck Sharp & Dohme Corp., USA), cefepime (Jiangsu Hengrui Pharmaceutical Co., Ltd., China), piperacillin (Suzhou Erye Pharmaceutical Co., Ltd., China), ceftazidime (Guangdong Jincheng Jinsu Pharmaceutical Co., Ltd., China), tazobactam (Meilunbio, China), avibactam (MedChemExpress, USA), aztreonam (Sigma-Aldrich, USA), amikacin (Meilunbio), cefuroxime (Esseti Farmaceutici S.r.l., Italy), fosfomycin (Harbin Pharmaceutical Group Co., Ltd. China), levofloxacin (Daiichi Sankyo Company Limited, Beijing, China), and cefotaxime (North China Pharmaceutical Hebei Huamin Pharmaceutical Co., Ltd., China).

[2] = tested on: K. pneumoniae isolate KPCZA02; assay: microbe, parasite or virus in culture; assay type: cell-based; conditions: Klebsiella pneumoniae
Protocol: as §1

[3] = tested on: E. coli DH5α; assay: MIC by agar dilution, E. coli DH5α; assay type: cell-based; conditions: Escherichia coli
Protocol: as §1, §2

[4] = tested on: E. coli DH5α-pCR2.1; assay: MIC by agar dilution, DH5α with blank vector pCR2.1; assay type: cell-based; conditions: Escherichia coli
Protocol: as §1, §2
(§3) The blaCMY cloning was performed using a TA cloning kit (Invitrogen, Shanghai, China). The blaCMY-178 gene combined with its predicted promoter was amplified from isolate AR13438. Then, the blaCMY-178 gene was cloned into the linearized vector pCR2.1 using T4 DNA ligase (Invitrogen). The blaCMY-172 gene was cloned from KPCZA02 with the same method. The resulting plasmids were chemically transformed into E. coli DH5α. The positive transformants were identified by blue-white screening in MH agar containing 50 μg/mL kanamycin and were further confirmed by Sanger sequencing. The pCR2.1 blank vector was also transformed into E. coli DH5α as a control. The primers used for cloning were CMY-F and CMY-R (see Table S2 in the supplemental material). Relative CMY expression was measured by reverse transcription-quantitative PCR as described previously ([34]). Specific quantitative PCR (qPCR) primers (q-recA-F/R and q-CMY-F/R) were designed (Table S2).

[5] = tested on: E. coli DH5α-pCR2.1-CMY-172; assay: MIC by agar dilution, transformant containing blaCMY-172; assay type: cell-based; conditions: Escherichia coli
Protocol: as §1, §2, §3

[6] = tested on: E. coli J53; assay: MIC by agar dilution, recipient E. coli J53; assay type: cell-based; conditions: Escherichia coli
Protocol: as §1, §2
(§4) Conjugation experiments were performed by filter mating using sodium-azide-resistant E. coli J53 as the recipient, as described previously. Transconjugants were selected with MH agar containing 100 μg/mL sodium azide and 4 μg/mL ceftazidime-avibactam; furthermore, transconjugants were named J53-AR13438 and J53-KPCZA02, respectively. We compared genomes of AR13438 and J53 to select a unique gene (gtrA) to J53. The blaCMY-178-postive transconjugants were confirmed by PCR and MALDI-TOF MS (see Fig. S9 in the supplemental material). The primers used for PCR were gtrA-F, gtrA-R, CMY-F, and CMY-R (Table S1). The transfer frequencies were calculated as the number of transconjugants (CFU/mL) divided by the number of recipients (CFU/mL). Donors and recipients were mixed at 1:1 for the transfer frequency experiment. S1-PFGE and Southern blotting were performed to define the location of blaCMY-178 and confirm the transmission of the plasmid as described previously ([35]). The MIC profiles of transconjugants were also determined by the agar dilution method.

[7] = tested on: E. coli J53-AR13438; assay: MIC by agar dilution, conjugant containing pAR13438_2; assay type: cell-based; conditions: Escherichia coli, J53AR13438, E. coli J53-AR13438 (blaCMY-178)
Protocol: as §1
as §4, with “The blaCMY-178-postive transconjugants were confirmed by PCR and MALDI-TOF MS (see Fig. S9 in the supplemental material).” left out

[8] = tested on: E. coli J53-KPCZA02; assay: MIC by agar dilution, conjugant containing pKPCZA02_4; assay type: cell-based; conditions: Escherichia coli, J53KPCZA02, E. coli J53-KPCZA02 (blaCMY-172)
Protocol: as §1
as §4, with “The blaCMY-178-postive transconjugants were confirmed by PCR and MALDI-TOF MS (see Fig. S9 in the supplemental material).” left out

[9] = tested on: E. coli DH5α-pCR2.1-CMY-2; assay: MIC by agar dilution, transformant containing blaCMY-2; assay type: cell-based; conditions: Escherichia coli
[10] = tested on: E. coli DH5α-pCR2.1-CMY-178; assay: MIC by agar dilution, transformant containing blaCMY-178; assay type: cell-based, Escherichia coli; conditions: for MIC: Escherichia coli, E. coli DH5α-pCR2.1-CMY-178, agar dilution; for Increase of MIC by blaCMY-178 compared with blaCMY-172: transformants in E. coli DH5α
Protocol: as §1, §2, §3

SMILES	Antimicrobial susceptibility category [1]	MIC [1]	MIC [2]	MIC [3]	MIC [4]	MIC [5]	MIC [6]	MIC [7]	MIC [8]	MIC [9]	MIC [10]	Increase of MIC by blaCMY-178 compared with blaCMY-172 [10]
NCC[C@H](O)C(=O)N[C@@H]1C[C@H](N)[C@@H](O[C@H]2O[C@H](CN)[C@@H](O)[C@H](O)[C@H]2O)[C@H](O)[C@H]1O[C@H]1O[C@H](CO)[C@@H](O)[C@H](N)[C@H]1O [AMK, amikacin]	resistant	> 256 µg/mL	> 256 µg/mL	1 µg/mL (≈ 1.71 µM)	1 µg/mL (≈ 1.71 µM)	2 µg/mL (≈ 3.42 µM)	2 µg/mL (≈ 3.42 µM)	2 µg/mL (≈ 3.42 µM)	2 µg/mL (≈ 3.42 µM)			
C[C@H]1[C@H](NC(=O)/C(=N\OC(C)(C)C(=O)O)c2csc(N)n2)C(=O)N1S(=O)(=O)O [ATM, aztreonam]		32 µg/mL (≈ 73.5 µM)		0.06 µg/mL (≈ 0.138 µM)	0.12 µg/mL (≈ 0.276 µM)	8 µg/mL (≈ 18.4 µM)	0.12 µg/mL (≈ 0.276 µM)	32 µg/mL (≈ 73.5 µM)		32 µg/mL (≈ 73.5 µM)	32 µg/mL (≈ 73.5 µM)	4 fold
CC(C)(O/N=C(\C(=O)N[C@@H]1C(=O)N2C(C(=O)[O-])=C(C[N+]3(CCNC(=O)c4ccc(O)c(O)c4Cl)CCCC3)CS[C@H]12)c1csc(N)n1)C(=O)O [CFDC, cefiderocol]	susceptible	0.25 µg/mL (≈ 0.332 µM)	1 µg/mL (≈ 1.33 µM)	< 0.03 µg/mL	< 0.03 µg/mL	1 µg/mL (≈ 1.33 µM)				0.125 µg/mL (≈ 0.166 µM)	1 µg/mL (≈ 1.33 µM)	
CO/N=C(\C(=O)N[C@@H]1C(=O)N2C(C(=O)O)=C(COC(C)=O)CS[C@H]12)c1csc(N)n1 [CTX, cefotaxime]		> 128 µg/mL	> 128 µg/mL	0.03 µg/mL (≈ 0.0659 µM)	0.06 µg/mL (≈ 0.132 µM)	32 µg/mL (≈ 70.3 µM)	0.06 µg/mL (≈ 0.132 µM)	32 µg/mL (≈ 70.3 µM)	16 µg/mL (≈ 35.1 µM)	32 µg/mL (≈ 70.3 µM)	128 µg/mL (≈ 281 µM)	4 fold
CO/N=C(\C(=O)N[C@@H]1C(=O)N2C(C(=O)O)=C(COC(N)=O)CS[C@H]12)c1ccco1 [CXM, cefuroxime]		> 1020 µg/mL	> 1020 µg/mL	4 µg/mL (≈ 9.43 µM)	4 µg/mL (≈ 9.43 µM)	64 µg/mL (≈ 151 µM)	16 µg/mL (≈ 37.7 µM)	256 µg/mL (≈ 603 µM)	256 µg/mL (≈ 603 µM)	128 µg/mL (≈ 302 µM)	1020 µg/mL (≈ 2410 µM)	over 4 fold
CO/N=C(\C(=O)N[C@@H]1C(=O)N2C(C(=O)[O-])=C(C[N+]3(C)CCCC3)CS[C@H]12)c1csc(N)n1 [FEP, cefepime]		128 µg/mL (≈ 266 µM)	> 128 µg/mL	0.06 µg/mL (≈ 0.125 µM)	0.12 µg/mL (≈ 0.25 µM)	16 µg/mL (≈ 33.3 µM)	0.06 µg/mL (≈ 0.125 µM)	32 µg/mL (≈ 66.6 µM)	32 µg/mL (≈ 66.6 µM)	2 µg/mL (≈ 4.16 µM)	64 µg/mL (≈ 133 µM)	4 fold
